This experiment concerns the target T1, serotonin 5-HT6 receptors (Homo sapiens, UniProt P50406).
T1 construct: expressed in transfected cells; host or cells: HeLa cells (membranes)
The experiment is described as follows: [3H]LSD displacement from 5-HT6 receptors expressed in HeLa cell membranes. Type of experiment: binding. The note with it: for Interaction efficiency of compounds of the general formula 1 with 5-HT6 receptor, %: displacement of 1.5 nM [3H]LSD, tested compounds at 10 mkM, 2 hr at 37° C. How it is done:
Investigation of ligand activity of azaheterocyclic compounds of the general formula 1 to 5-HT6 receptor. A focused library, including 3537 azaheterocyclic compounds of the general formula 1, their geometric isomers and pharmaceutically acceptable salts were tested for ligand activity to 5-HT6 receptor. Some examples of the tested azaheterocyclic compounds of the general formula 1 are represented in Tables 1-3, including: pyrrolo[4,3-b]indoles 1.2, 1.3 (Table 1), γ-carbolines 1.5, 1.6, 1.7 (Table 2) and azepino[4,3-b]indoles 1.10, 1.12, 1.13 (Tables 3). Ligand activity was determined by the ability of azaheterocyclic compounds of the general formula 1 to displace concurrently tritium-labelled diethyl […] of lysergic acid ([^3H]LSD), specifically bound to serotonin 5-HT6 receptors, which are expressed in HeLa cells membranes [Monsma F J Jr, Shen Y, Ward R P, Hamblin M W and Sibley D R (1993). Cloning and expression of a novel serotonin receptor with high affinity for tricyclic psychotropic drugs. Mol. Pharmacol. 43:320-3271. Cells membranes were incubated with 1.5 nM [^3H]LSD for 2 hr at 37° C. without and in the presence of tested compounds of 10 mkM concentration in the medium comprising: 50 mM Tris-HCl, pH 7.4, 150 mM NaCl, 2 mM ascorbic acid and 0.001% of bovine serum albumin. Nonspecific binding of [^3H]LSD was determined in the presence of 5 mkM of serotonin (5-HT). After incubation membrane suspensions were filtered through glass microfiber filters GF/A (Millipor, USA) and the residual radioactivity was measured by scintillation counter Microbeta 1840 (PerkinElmer). Investigated compounds interacted effectively with 5-HT6 receptor.
Measurements were carried out as it is described in example 1, except that the tested compounds were taken in various concentrations and % of displacement of [^3H]LSD was plotted as a function of compound's concentration (FIG. 1), on the basis of which IC50 (concentration of halfmaximum blocking of [^3H]LSD binding) values characterizing the seeming affinity of substituted azaheterocyclic compounds of the general formula 1 to 5-HT6 receptor were calculated (Table 5).

[1] abbreviates: [3H]LSD displacement at various compound concentrations, HeLa cell membranes, read-out: IC50 (concentration of halfmaximum blocking of [3H]LSD binding), seeming affinity to 5-HT6 receptor.

Read-outs that look alike come from different tables or passages of the source.

T1 sequence (P50406 whole entry): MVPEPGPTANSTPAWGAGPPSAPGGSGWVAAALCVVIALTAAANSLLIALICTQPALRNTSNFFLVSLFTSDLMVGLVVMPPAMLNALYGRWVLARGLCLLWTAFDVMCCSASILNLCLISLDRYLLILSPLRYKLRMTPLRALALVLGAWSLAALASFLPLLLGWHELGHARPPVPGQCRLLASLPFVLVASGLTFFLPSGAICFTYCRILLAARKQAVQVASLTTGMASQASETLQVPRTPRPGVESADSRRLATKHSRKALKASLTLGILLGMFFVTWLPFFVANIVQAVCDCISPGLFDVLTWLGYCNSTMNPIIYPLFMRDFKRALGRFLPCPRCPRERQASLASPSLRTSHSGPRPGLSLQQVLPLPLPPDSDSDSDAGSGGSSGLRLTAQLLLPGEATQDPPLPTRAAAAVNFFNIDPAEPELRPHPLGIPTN

As to `Cc1ccc(S(=O)(=O)n2c3c(c4cc(C)ccc42)CN(C)C3)cc1` [1.2(39)], the “Interaction efficiency of compounds of the general formula 1 with 5-HT6 receptor, %” value (shortened to “Interaction efficiency of compounds … %”) (HeLa cell membranes) is listed as 77%.

`Cc1ccc2c(c1)[C@@H]1CN(C)C[C@@H]1N2CCc1ccc(C)nc1` [1.3(9)]: the “Interaction efficiency of compounds … %” value (HeLa cell membranes) came out at 27%.

`CN1CCc2c(c3ccccc3n2Cc2ccccc2)C1` [1.5(18)]: the “Interaction efficiency of compounds … %” value (HeLa cell membranes) was 71%.

`Cc1ccc2c(c1)c1c(n2CCc2ccc(C)nc2)CCN(C)C1` [1.5(20)]: the IC50 under setting [1] is 0.074 µM. Besides, under “HeLa cell membranes”, the “Interaction efficiency of compounds … %” value is reported as 100%.

For the compound `Cc1ccc2c(c1)C1CN(C)CCC1N2C(=O)c1ccccc1` (centres unmarked) [1.6(6)], the “Interaction efficiency of compounds … %” value (HeLa cell membranes) stood at 52%.

Take `Cc1ccc2c(c1)C1CN(C)CCC1N2S(=O)(=O)c1nc2cc(C)nc(C)n2n1` (centres unmarked) [1.6(22)]: the “Interaction efficiency of compounds … %” value (HeLa cell membranes) is 82%.

Consider `Cc1ccc2c(c1)[C@@H]1CN(C)CC[C@@H]1N2C(=O)Nc1cccc(C(F)(F)F)c1` [1.7(1)], for which the “Interaction efficiency of compounds … %” value (HeLa cell membranes) is listed as 47%.

Regarding `Cc1ccc2c(c1)c1c(n2CCc2ccccn2)CCCN(C)C1` [1.10(49)], the “Interaction efficiency of compounds … %” value (HeLa cell membranes) was found to be 88%.

For the compound `Cc1ccc(CCn2c3c(c4cc(C)ccc42)CN(C)CCC3)nc1` [1.10(50)], the IC50 under setting [1] is 1.25 µM. Moreover, the “Interaction efficiency of compounds … %” value (HeLa cell membranes) turned out to be 84%.

`Cc1ccc2c(c1)c1c(n2CCc2ccncc2)CCCN(C)C1` [1.10(51)]: the IC50 under setting [1] worked out at 1.06 µM. The “Interaction efficiency of compounds … %” value (HeLa cell membranes) is recorded as 84%.

On to `Cc1ccc2c(c1)c1c(n2CCc2cccnc2)CCCN(C)C1` [1.10(53)], for which, under setting [1], the IC50 was 0.738 µM. For the same compound, the “Interaction efficiency of compounds … %” value (HeLa cell membranes) is 79%.

Turning to `Cc1ccc2c(c1)[C@@H]1CNCCC[C@@H]1N2CCc1cccnc1` [1.12(12)], under “HeLa cell membranes”, the “Interaction efficiency of compounds … %” value is reported as 84%.

Take `Cc1ccc2c(c1)[C@@H]1CNCCC[C@@H]1N2CCc1ccc(C)nc1` [1.12(13)]: the “Interaction efficiency of compounds … %” value (HeLa cell membranes) was 76%.

With `Cc1ccc2c(c1)[C@@H]1CN(C)CCC[C@H]1N2CCc1ccc(C)nc1` [1.13(3)], the “Interaction efficiency of compounds … %” value (HeLa cell membranes) is 93%.

Consider `Cc1ccc2c(c1)[C@@H]1CN(C)CCC[C@H]1N2CCc1cccnc1` [1.13(13)], for which the IC50 was found to be 0.787 µM. Further, the “Interaction efficiency of compounds … %” value (HeLa cell membranes) stood at 93%.

The values above are taken from patent US20110046368A1, “LIGANDS OF 5-HT6 RECEPTORS, A PHARMACEUTICAL COMPOSITION, METHOD FOR THE PRODUCTION AND USE THEREOF” (priority 2006, published 2011).
